Measured values reported in patent US12428648B2, “Compositions comprising peptides that block transmission of orthotospoviruses” (priority 2019, dated 2025).
No end group written: not given here.

Biological target: αvβ3 (Homo sapiens, UniProt P05106+P06756)
Sequence (P06756 31-1048): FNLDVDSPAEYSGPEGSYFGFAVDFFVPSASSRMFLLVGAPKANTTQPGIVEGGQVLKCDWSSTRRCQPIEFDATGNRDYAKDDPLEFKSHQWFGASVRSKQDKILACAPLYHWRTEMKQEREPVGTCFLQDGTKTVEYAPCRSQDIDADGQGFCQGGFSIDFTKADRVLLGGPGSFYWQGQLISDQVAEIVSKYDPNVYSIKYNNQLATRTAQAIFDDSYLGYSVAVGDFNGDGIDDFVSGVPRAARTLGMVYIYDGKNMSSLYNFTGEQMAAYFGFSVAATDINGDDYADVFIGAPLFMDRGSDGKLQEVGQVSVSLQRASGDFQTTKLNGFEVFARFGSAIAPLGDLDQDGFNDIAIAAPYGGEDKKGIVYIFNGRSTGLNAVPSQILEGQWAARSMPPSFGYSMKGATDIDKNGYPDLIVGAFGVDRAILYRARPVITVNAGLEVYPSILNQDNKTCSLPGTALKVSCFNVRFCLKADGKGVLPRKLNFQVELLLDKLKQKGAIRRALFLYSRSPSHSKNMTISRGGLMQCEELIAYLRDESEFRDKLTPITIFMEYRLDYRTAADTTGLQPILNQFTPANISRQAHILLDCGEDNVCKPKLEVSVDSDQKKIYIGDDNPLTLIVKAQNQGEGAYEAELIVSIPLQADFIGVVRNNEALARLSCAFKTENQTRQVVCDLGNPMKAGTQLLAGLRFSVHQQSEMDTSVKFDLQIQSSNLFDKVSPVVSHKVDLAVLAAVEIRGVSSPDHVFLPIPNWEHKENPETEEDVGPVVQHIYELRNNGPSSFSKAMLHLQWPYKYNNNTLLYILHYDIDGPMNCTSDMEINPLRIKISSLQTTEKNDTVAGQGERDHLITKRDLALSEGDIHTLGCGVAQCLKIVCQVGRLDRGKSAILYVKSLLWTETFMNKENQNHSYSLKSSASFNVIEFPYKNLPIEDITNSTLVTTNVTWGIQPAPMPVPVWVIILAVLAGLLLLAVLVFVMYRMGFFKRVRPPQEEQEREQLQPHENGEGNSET
Sequence (P05106 27-788): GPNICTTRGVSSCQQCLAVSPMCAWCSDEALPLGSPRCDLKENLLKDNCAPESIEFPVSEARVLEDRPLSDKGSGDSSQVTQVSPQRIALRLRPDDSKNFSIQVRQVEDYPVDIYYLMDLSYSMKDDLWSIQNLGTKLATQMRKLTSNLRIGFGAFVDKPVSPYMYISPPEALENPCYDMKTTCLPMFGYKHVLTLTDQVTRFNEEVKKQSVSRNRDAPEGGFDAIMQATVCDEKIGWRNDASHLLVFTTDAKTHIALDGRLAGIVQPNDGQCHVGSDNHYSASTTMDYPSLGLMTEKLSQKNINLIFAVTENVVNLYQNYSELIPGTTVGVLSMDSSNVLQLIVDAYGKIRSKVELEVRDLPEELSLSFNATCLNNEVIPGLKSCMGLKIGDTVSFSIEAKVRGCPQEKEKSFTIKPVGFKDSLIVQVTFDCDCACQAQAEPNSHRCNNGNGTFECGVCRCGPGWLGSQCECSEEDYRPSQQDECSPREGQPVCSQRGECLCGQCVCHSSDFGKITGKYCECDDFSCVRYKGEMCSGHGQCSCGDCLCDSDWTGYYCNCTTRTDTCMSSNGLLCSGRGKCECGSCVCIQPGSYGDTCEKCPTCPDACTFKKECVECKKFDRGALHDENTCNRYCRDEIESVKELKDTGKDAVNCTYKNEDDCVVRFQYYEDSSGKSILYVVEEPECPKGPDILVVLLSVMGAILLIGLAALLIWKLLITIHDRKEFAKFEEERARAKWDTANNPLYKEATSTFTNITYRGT
Assay: not given
Settings: Hersel et al., 2003; cited from earlier work
In the case of GPenGRGDSPCA, the “integrin selectivity, in words” value is listed as “selective for αvβ3”.

Biological target: α5β1 (Homo sapiens, UniProt P05556+P08648)
Sequence (P08648 42-1049): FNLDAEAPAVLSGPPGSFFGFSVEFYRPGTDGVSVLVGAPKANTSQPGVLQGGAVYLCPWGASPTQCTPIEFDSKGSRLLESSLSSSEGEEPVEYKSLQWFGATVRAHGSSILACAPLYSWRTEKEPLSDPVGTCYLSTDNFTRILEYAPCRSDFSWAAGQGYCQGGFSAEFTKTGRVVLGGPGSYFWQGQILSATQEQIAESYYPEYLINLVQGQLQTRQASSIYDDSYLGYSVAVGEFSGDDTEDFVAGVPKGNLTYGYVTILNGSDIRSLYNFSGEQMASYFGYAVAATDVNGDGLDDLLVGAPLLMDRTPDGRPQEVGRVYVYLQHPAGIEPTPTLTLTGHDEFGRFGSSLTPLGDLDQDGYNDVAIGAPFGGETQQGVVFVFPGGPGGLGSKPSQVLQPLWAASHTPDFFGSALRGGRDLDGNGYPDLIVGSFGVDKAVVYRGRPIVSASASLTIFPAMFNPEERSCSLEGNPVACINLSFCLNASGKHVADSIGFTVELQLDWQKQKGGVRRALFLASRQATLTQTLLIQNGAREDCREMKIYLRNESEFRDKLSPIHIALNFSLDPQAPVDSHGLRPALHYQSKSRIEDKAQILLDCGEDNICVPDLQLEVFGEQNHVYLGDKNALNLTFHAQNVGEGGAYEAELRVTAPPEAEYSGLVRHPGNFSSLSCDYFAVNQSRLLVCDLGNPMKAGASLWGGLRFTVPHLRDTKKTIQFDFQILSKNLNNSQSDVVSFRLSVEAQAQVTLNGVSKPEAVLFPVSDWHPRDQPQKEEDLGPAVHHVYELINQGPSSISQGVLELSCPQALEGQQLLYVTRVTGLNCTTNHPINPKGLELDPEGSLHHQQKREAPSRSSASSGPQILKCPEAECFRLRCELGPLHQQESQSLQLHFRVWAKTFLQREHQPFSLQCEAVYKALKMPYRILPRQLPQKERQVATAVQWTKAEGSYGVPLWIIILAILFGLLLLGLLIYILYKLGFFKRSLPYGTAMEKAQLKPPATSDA
Sequence (P05556 21-798): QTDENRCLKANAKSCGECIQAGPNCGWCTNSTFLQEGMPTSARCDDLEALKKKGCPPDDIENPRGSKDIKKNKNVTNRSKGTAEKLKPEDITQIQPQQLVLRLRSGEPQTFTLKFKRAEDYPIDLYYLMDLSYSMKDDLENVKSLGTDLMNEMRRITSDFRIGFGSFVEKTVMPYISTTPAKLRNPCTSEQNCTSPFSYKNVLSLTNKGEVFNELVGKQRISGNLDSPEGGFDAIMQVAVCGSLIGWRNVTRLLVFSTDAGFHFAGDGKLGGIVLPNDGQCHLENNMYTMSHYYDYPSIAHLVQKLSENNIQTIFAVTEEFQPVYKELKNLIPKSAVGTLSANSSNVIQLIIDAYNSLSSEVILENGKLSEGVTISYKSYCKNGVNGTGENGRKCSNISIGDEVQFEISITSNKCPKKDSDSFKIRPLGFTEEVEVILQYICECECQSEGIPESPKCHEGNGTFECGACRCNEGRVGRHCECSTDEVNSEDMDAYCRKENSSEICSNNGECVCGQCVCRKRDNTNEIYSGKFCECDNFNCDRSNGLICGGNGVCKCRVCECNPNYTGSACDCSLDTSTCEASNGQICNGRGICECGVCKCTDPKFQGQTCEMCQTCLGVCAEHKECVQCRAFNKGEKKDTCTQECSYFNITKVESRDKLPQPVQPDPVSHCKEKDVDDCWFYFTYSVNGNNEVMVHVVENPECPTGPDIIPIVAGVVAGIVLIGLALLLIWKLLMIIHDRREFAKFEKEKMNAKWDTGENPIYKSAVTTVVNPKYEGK
Assay: not given
Settings: Hersel et al., 2003; cited from earlier work
For GRGDSP, the “integrin binding preference, in words” value is given as “bind preferentially to α5β1”. For RGDSPASSKP, the “integrin binding preference, in words” value is given as “bind preferentially to α5β1”.

Tested on: not listed separately
Assay: Dissolution of the synthesized peptides
Assay type: physicochemical
Settings: molecular biology grade water; 25% acetic acid for A229
In the case of NASIAAAHEVSQE [AAA], the “solubility of the peptide, in words” value is reported as “dissolved in molecular biology grade water”. In the case of NASIAADHEVSQE [AAD], the “solubility of the peptide, in words” value is reported as “insoluble in H2O”. For NASIAGAHEVSQE [AGA], the “solubility of the peptide, in words” value was “dissolved in molecular biology grade water”. With NASIAGDHEVSQE [AGD] the “solubility of the peptide, in words” value was “dissolved in molecular biology grade water”. In the case of NASIRAAHEVSQE [RAA], the “solubility of the peptide, in words” value is reported as “dissolved in molecular biology grade water”. In the case of NASIRADHEVSQE [RAD], the “solubility of the peptide, in words” value is reported as “insoluble in H2O”. For NASIRGAHEVSQE [RGA], the “solubility of the peptide, in words” value was “dissolved in molecular biology grade water”. With NASIRGDHEVSQE [RGD] the “solubility of the peptide, in words” value was “dissolved in molecular biology grade water”. In the case of RLTGECAITKVSLTN [A229], the “solubility of the peptide, in words” value is reported as “did not dissolve in either water or 25% acetic acid”. With RLTGECNITKVSLTN [N229] the “solubility of the peptide, in words” value was “dissolved in molecular biology grade water”.
